{"source": "patent US10253356B2", "about": "“Visualizing modified nucleotides and nucleic acid interactions in single cells” (SIGMA-ALDRICH CO. LLC, priority 2014, dated 2019)", "key": {"[1]": {"system": "SEPTIN 9 promoter methylation in SW480 cells", "assay": "ISH-PLA visualization of SEPTIN 9 promoter methylation after drug treatment", "type": "cell-based, human", "settings": "SW480 colon cancer cells, 500 nM for 24 hours, SEPTIN 9 probe set (ii), FIG. 5", "experimental": "With this aim, a protocol was developed to perform in-situ hybridization followed by proximity ligation assay (PLA) (a.k.a., DUOLINK®, Sigma-Aldrich) and cell imaging to visualize DNA-methylation (5 meC) on the SEPTIN 9 promoter. […] The PLA assay was performed using anti-biotin and anti-5 meC antibodies, corresponding (+ and −) PLA probes, and Far Red detection reagents.\nHuman cancer cells, i.e., DU145 (metastatic cancer; origin in prostrate migrated to brain) or SW480 (colon cancer), were grown in DMEM (Dulbecco's Modified Eagle's Medium) supplemented with 10% FBS and Pen/Strep antibiotics, and seeded (˜10^4 cells) per well of 8-well culture chambered coverglass plates (with silicone gasket). The cells were washed twice with HBSS, and then fixed with 4% paraformaldehyde solution (40 μL/well, 16% paraformaldehyde stock diluted 1:4 in 1×PBS) for 30 minutes at room temperature (RT). The crosslinking was stopped by adding 5 μL/well of 1.25M Glycine, and incubating at RT for 5 minutes. The cells were permeabilized by incubation for 1 hour at RT with permeabilization buffer (0.75% Tween 20 and 0.75% Triton X-100 in 1×PBS). The cells were rinsed with 1×PBS. For detection of 5-meC DNA, the cells were treated with 4 N HCL for 10 minutes at RT. The cells were washed with 1×PBS for 30 min at RT. […]"}, "SW480 cells": {"system": "SW480 cells", "assay": "Cytotoxic effects (cell shape) seen in drug-treated cells during ISH-PLA imaging", "type": "cell-based, human", "settings": "500 nM for 24 hours, a few drug treated cells", "experimental": "Human cancer cells, i.e., DU145 (metastatic cancer; origin in prostrate migrated to brain) or SW480 (colon cancer), were grown in DMEM (Dulbecco's Modified Eagle's Medium) supplemented with 10% FBS and Pen/Strep antibiotics, and seeded ( 10^4 cells) per well of 8-well culture chambered coverglass plates (with silicone gasket). The cells were washed twice with HBSS, and then fixed with 4% paraformaldehyde solution (40 μL/well, 16% paraformaldehyde stock diluted 1:4 in 1×PBS) for 30 minutes at room temperature (RT). The crosslinking was stopped by adding 5 μL/well of 1.25M Glycine, and incubating at RT for 5 minutes. The cells were permeabilized by incubation for 1 hour at RT with permeabilization buffer (0.75% Tween 20 and 0.75% Triton X-100 in 1×PBS). The cells were rinsed with 1×PBS. For detection of 5-meC DNA, the cells were treated with 4 N HCL for 10 minutes at RT. The cells were washed with 1×PBS for 30 min at RT. The cells were treated for 1 minute with pre-warmed (37° C.) 0.25% Trypsin-EDTA solution, and the trypsin was inactivated by incubating for 2 minutes in pre-warmed (37° C.) quenching solution (i.e., DMEM supplemented with 10% FBS and 3 mg/mL BSA). The cells were washed with 1×PBS and blocked with an in situ hybridization blocking solution for 1 hour at RT."}}}
{"smiles": "Nc1ncn([C@@H]2O[C@H](CO)[C@@H](O)[C@H]2O)c(=O)n1", "note": "[5-Azacytidine]", "values": [{"measurement": "SEPTIN 9 promoter methylation (nuclear ISH-PLA signal)", "setting": "[1]", "result": "Loss of this nuclear ISH-PLA signal"}, {"measurement": "SEPTIN 9 promoter methylation (nuclear ISH-PLA signal)", "setting": "[1]; listed as 5-AzaC", "result": "diminished"}, {"measurement": "cytotoxic effects (altered cellular shape)", "setting": "SW480 cells", "result": "cytotoxic effects in terms of altered cellular shape"}]}
